Results on six compounds are retold here after patent publication US4992449A, “7-(substituted)cycloalkylamino-1 -(substituted)-6-fluoro-1,4-dihydro-4-oxo-3-quinolinecarboxylic acids” (American Cyanamid Company, priority 1990, dated 1991).

What all share (assay): In vitro antibacterial MIC, agar plate dilution
Format in all cases: cell-based

Assay [1] concerns Escherichia coli ATCC 25922. Conditions: Table II, Excherichia coli ATCC 25922. The method, then: (§1) The in vitro antimicrobial spectrum of the compounds of this invention were determined by the agar plate dilution method with Mueller-Hinton agar and an inoculum of each test organism of approximately 10^4 colony forming units delivered by the Steers replicating device. The minimal inhibitory concentration (MIC) in mcg/ml is defined as the lowest concentration of test compound that inhibited visible growth after 18 hours incubation at 35° C. Results are given in Table I, with the test compounds identified by the number of their hereinafter described examples

The subject of assay [2] is Excherichia coli CMC 84-11. Conditions: Table II. The method, then: as §1
The test system of assay [3] is Excherichia coli LL 311. Conditions: Table II. As to the method: as §1
Assay [4] deals with Morganella morganii CMC 84-37. Conditions: Table II. The method, then: as §1
The test system of assay [5] is Proteus rettgeri CMC 84-41. Conditions: Table II. As to the method:
as §1

The subject of assay [6] is Pseudomonas aeruginosa LL-1244. Conditions: Table II. As to the method:
as §1

The test system of assay [7] is Pseudomonas aeruginosa VGH 84-4. The following applies: Table II. The method, then: as §1
Assay [8] concerns Serratia marcescens K 84-18. The following applies: Table II. As to the method: as §1
For assay [9], the system named is Serratia marcescens VGH 84-30. The following applies: Table II. As to the method: as §1
For assay [10], the system named is Staphylococcus aureus ATCC 29213. The following applies: Table II. The method, then:
as §1

The subject of assay [11] is Staphylococcus aureus Smith 1. The following applies: Table II. The method, then: as §1
The subject of assay [12] is Staphylococcus aureus VGH 84-45. Conditions: Table II. As to the method: as §1
Assay [13] concerns Streptococcus faecalis UCI 85-19. The following applies: Table II. The method, then: as §1
Assay [14] has as its system Streptococcus faecalis VGH 84-65. Conditions: Table II. As to the method:
as §1

The mark [15] stands for this setting: Escherichia coli, ATCC25922, 18 h, read-out: MIC.
The mark [16] stands for this setting: Providencia rettgeri, CMC8441, 18 h, read-out: MIC.
The mark [17] stands for this setting: Pseudomonas aeruginosa, LL1244, 18 h, read-out: MIC.
Setting [18] is: Pseudomonas aeruginosa, VGH844, 18 h, read-out: MIC.
Setting [19] is: Staphylococcus aureus, ATCC29213, 18 h, read-out: MIC.
[20] abbreviates: Staphylococcus aureus, SMITH1, 18 h, read-out: MIC.
Setting [21] is: Enterococcus faecalis, UCI8519, 18 h, read-out: MIC.
[22] abbreviates: Enterococcus faecalis, VGH8465, 18 h, read-out: MIC.

The MIC is the smallest concentration in the dilution series that meets the test's criterion for growth inhibition.

Values after ≈ are worked out from the molar mass of the structure shown. Where two headings read alike, the source gives them in different places.

Regarding `CCn1cc(C(=O)O)c(=O)c2cc(F)c(N[C@@H]3CCCC[C@H]3N)cc21` (racemic) [Example 7, Trans-(+/-)-7-[(2-Aminocyclohexyl)amino]1-ethyl-6-fluoro-1,4-dihydro-4-oxo-3-quinolinecarboxylic acid], the MIC in assay [1] (setting [15]) came to 32 µg/mL (≈ 92.1 µM); in assay [2] (18 h, read-out: MIC) it was 16 µg/mL (≈ 46.1 µM); in assay [3] (18 h, read-out: MIC), 32 µg/mL (≈ 92.1 µM); in assay [4] (CMC8437, 18 h, read-out: MIC), 32 µg/mL (≈ 92.1 µM); in assay [5] (setting [16]), 128 µg/mL (≈ 368 µM); in assay [6] (setting [17]), 128 µg/mL (≈ 368 µM). Besides, the MIC in [7] (setting [18]) was 128 µg/mL (≈ 368 µM); in assay [8] (K8418, 18 h, read-out: MIC) it was 64 µg/mL (≈ 184 µM); in assay [9] (VGH8430, 18 h, read-out: MIC), 128 µg/mL (≈ 368 µM); in [10] (setting [19]), greater than 128 µg/mL; in assay [11] (setting [20]) it was 16 µg/mL (≈ 46.1 µM); in assay [12] (VGH8445, 18 h, read-out: MIC), 128 µg/mL (≈ 368 µM). Moreover, the MIC came out at 128 µg/mL (≈ 368 µM) in assay [13] (setting [21]) and 64 µg/mL (≈ 184 µM) in [14] (setting [22]).

Regarding `CCn1cc(C(=O)O)c(=O)c2cc(F)c(N[C@@H]3CCCC[C@@H]3O)cc21` (relative stereo) [Example 5, Cis-7-[(2-Hydroxycyclohecxyl)amino]-1-ethyl-6-fluoro-1,4-dihydro-4-oxo-3-quinolinecarboxylic acid], the MIC in [1] (setting [15]) was 32 µg/mL (≈ 91.9 µM); in assay [2] (18 h, read-out: MIC) it was 32 µg/mL (≈ 91.9 µM); in [3] (18 h, read-out: MIC) it was 16 µg/mL (≈ 45.9 µM); in assay [4] (CMC8437, 18 h, read-out: MIC), 32 µg/mL (≈ 91.9 µM); in assay [5] (setting [16]), 64 µg/mL (≈ 184 µM); in assay [6] (setting [17]) it was greater than 128 µg/mL. In addition, the MIC is greater than 128 µg/mL in assay [7] (setting [18]); 64 µg/mL (≈ 184 µM) in assay [8] (K8418, 18 h, read-out: MIC); greater than 128 µg/mL in assay [9] (VGH8430, 18 h, read-out: MIC); 64 µg/mL (≈ 184 µM) in assay [10] (setting [19]); 8 µg/mL (≈ 23 µM) in assay [11] (setting [20]); 32 µg/mL (≈ 91.9 µM) in [12] (VGH8445, 18 h, read-out: MIC). For the same compound, the MIC in assay [13] (setting [21]) and in [14] (setting [22]) was greater than 128 µg/mL throughout.

Take `CCn1cc(C(=O)O)c(=O)c2cc(F)c(N[C@@H]3CCCC[C@@H]3N)cc21` (relative stereo) [Example 6, Cis-7-[(2-Aminocyclohexyl)amino]-1-ethyl-6-fluoro-1,4-dihydro-4-oxo-3-quinolinecarboxylic acid]: the MIC in [1] (setting [15]) is 0.5 µg/mL (≈ 1.44 µM); in [2] (18 h, read-out: MIC) it was 0.5 µg/mL (≈ 1.44 µM); in assay [3] (18 h, read-out: MIC) it was 0.5 µg/mL (≈ 1.44 µM); in assay [4] (CMC8437, 18 h, read-out: MIC) it was 0.5 µg/mL (≈ 1.44 µM); in [5] (setting [16]), 1 µg/mL (≈ 2.88 µM); in assay [6] (setting [17]), 8 µg/mL (≈ 23 µM). The MIC in assay [7] (setting [18]) was 8 µg/mL (≈ 23 µM); in [8] (K8418, 18 h, read-out: MIC), 1 µg/mL (≈ 2.88 µM); in assay [9] (VGH8430, 18 h, read-out: MIC), 4 µg/mL (≈ 11.5 µM); in [10] (setting [19]) it was 8 µg/mL (≈ 23 µM); in assay [11] (setting [20]), 0.5 µg/mL (≈ 1.44 µM); in [12] (VGH8445, 18 h, read-out: MIC) it was 2 µg/mL (≈ 5.76 µM). Further, the MIC in assay [13] (setting [21]) and in assay [14] (setting [22]) was 8 µg/mL (≈ 23 µM) each time.

Take `CCn1cc(C(=O)O)c(=O)c2cc(F)c(N[C@@H]3CCCC[C@H]3N)cc21` (relative stereo) [Example 8, Trans-(-)-7-[(2-Aminocyclohexyl)amino]-1-ethyl-6-fluoro-1,4-dihydro-4-oxo-3-quinolinecarboxylic acid]: the MIC in assay [1] (setting [15]) is 32 µg/mL (≈ 92.1 µM); in [2] (18 h, read-out: MIC) it was 16 µg/mL (≈ 46.1 µM); in [3] (18 h, read-out: MIC) it was 32 µg/mL (≈ 92.1 µM); in assay [4] (CMC8437, 18 h, read-out: MIC), 32 µg/mL (≈ 92.1 µM); in [5] (setting [16]), 128 µg/mL (≈ 368 µM); in assay [6] (setting [17]), greater than 128 µg/mL. For the same compound, the MIC in assay [7] (setting [18]) is greater than 128 µg/mL; in [8] (K8418, 18 h, read-out: MIC), 32 µg/mL (≈ 92.1 µM); in assay [9] (VGH8430, 18 h, read-out: MIC), 128 µg/mL (≈ 368 µM); in assay [10] (setting [19]), 128 µg/mL (≈ 368 µM); in [11], 16.00 µg/mL (≈ 46.1 µM); in assay [12] (VGH8445, 18 h, read-out: MIC), 128 µg/mL (≈ 368 µM). For the same compound, the figures for the MIC in assay [13] (setting [21]) and in assay [14] (setting [22]) were 128 µg/mL (≈ 368 µM) and 64 µg/mL (≈ 184 µM), respectively.

Consider `CCn1cc(C(=O)O)c(=O)c2cc(F)c(N[C@@H]3CCCC[C@H]3N)cc21` (relative stereo) [Example 9, Trans-(+)-7-[(2-Aminocyclohexyl)amino]-1-ethyl-6-fluoro-1,4-dihydro-4-oxo-3-quinolinecarboxylic acid], for which the MIC in assay [1] was 32.00 µg/mL (≈ 92.1 µM); in assay [2] it was 16.00 µg/mL (≈ 46.1 µM); in [3], 32.00 µg/mL (≈ 92.1 µM); in assay [4], 32.00 µg/mL (≈ 92.1 µM); in [5], 128.00 µg/mL (≈ 368 µM); in assay [6], 128.00 µg/mL (≈ 368 µM). Further, the MIC is 128.00 µg/mL (≈ 368 µM) in assay [7]; 32.00 µg/mL (≈ 92.1 µM) in assay [8]; 128.00 µg/mL (≈ 368 µM) in assay [9]; greater than 128.00 µg/mL in assay [10]; 128.00 µg/mL (≈ 368 µM) in [11]; 128.00 µg/mL (≈ 368 µM) in [12]. For the same compound, the MIC in assay [13] came to 128.00 µg/mL (≈ 368 µM); in [14], 64.00 µg/mL (≈ 184 µM).

With `CCn1cc(C(=O)O)c(=O)c2cc(F)c(N[C@@H]3CCCC[C@@H]3NC)cc21` (relative stereo) [Example 10], the MIC in assay [1] (setting [15]) was 8 µg/mL (≈ 22.1 µM); in assay [2] (18 h, read-out: MIC), 4 µg/mL (≈ 11.1 µM); in [3] (18 h, read-out: MIC) it was 4 µg/mL (≈ 11.1 µM); in assay [4] (CMC8437, 18 h, read-out: MIC), 8 µg/mL (≈ 22.1 µM); in assay [5] (setting [16]), 32 µg/mL (≈ 88.5 µM); in assay [6] (setting [17]), 128 µg/mL (≈ 354 µM). Moreover, the MIC in assay [7] (setting [18]) was determined as 128 µg/mL (≈ 354 µM); in assay [8] (K8418, 18 h, read-out: MIC), 8 µg/mL (≈ 22.1 µM); in assay [9] (VGH8430, 18 h, read-out: MIC), 32 µg/mL (≈ 88.5 µM); in assay [10] (setting [19]), 8 µg/mL (≈ 22.1 µM); in [11] (setting [20]) it was 2 µg/mL (≈ 5.53 µM); in assay [12] (VGH8445, 18 h, read-out: MIC), 4 µg/mL (≈ 11.1 µM). Besides, the MIC in assay [13] (setting [21]) and in [14] (setting [22]) was 32 µg/mL (≈ 88.5 µM) in each case.
